Source: patent publication US10195243B2, “Process of making wine from a whole grape bunch, process of making pomace juice and powder, and method of producing beverages on the basis of juice and powder from a grape bunch” (priority 2014, dated 2019)

Test system: Molt-4-luc leukemia
Conditions: positive control group
Procedure: The objective was to evaluate the anti-tumor efficacy of different compounds in leukemia model in Balb/c nude mice.
Female Balb/c nude mice, with a body weight of approximately 20 grams, were obtained from an approved vendor (Shanghai BK Laboratory Animal Co., LTD., Shanghai, China). Upon arrival, animals were assessed as to their general health by a member of a veterinary staff or authorized personnel. Animals were acclimated for at least three days (upon arrival at the experiment room) before being used for the study. Animals were housed in groups during acclimation and individually housed during in-life. […] Temperature and relative humidity were monitored daily. […]
The tumor cells were routinely subcultured twice weekly. The cells growing in an exponential growth phase were harvested and counted for tumor inoculation. […]
Mice were randomly assigned to 16 groups (vehicle control, positive control, and 14 testing article groups) based on the body weight. […] Whole body and metastatic bioluminescence were measured and recorded.
The inoculated mice were weighted and intraperitoneally injected luciferin at 150 mg/kg. […] The bioluminescence of the whole animal body, including primary and metastatic tumors, was measured and images are recorded.
Bioluminescence (BL) of the whole animal body, including primary and metastatic tumors, was measured and images were recorded using a fixed intensity scale. […]

O=P1(N(CCCl)CCCl)NCCCO1 (centres unmarked) [Cyclophosphamide]
mice died (day 111 after cell injection, the mouse showed bioluminescence signal): one | outcome until day 150: died
